Test results: patent US4746675A, “External pharmaceutical composition” (Teijin Limited, priority 1983, dated 1988)

Assays:
[1] = test system: eye (cornea, iris, conjunctiva); assay: primary eye irritation (Draize) in rabbits; assay type: in vivo, white native male rabbits; settings: 2.4% soln, average of three rabbits
blood glucose level = assay: blood glucose after intrarectal administration of hog insulin suppository to rabbits; assay type: in vivo, rabbit; settings: for Percent decrease of the blood glucose level from that before the administration: hog insulin 9.6 units, intrarectal, rabbit
Method: Sixty parts by weight of fractionated coconut oil and 10 parts by weight of compound (168) or compound (173) were uniformly mixed, and then hog insulin was gradually added to form a uniform dispersion. The dispersion was filled in a gelatin capsule for suppositories to form a gelatin capsular suppository. These suppository contained 9.6 units of insulin. The suppository was intrarectally administered to a rabbit, and the blood glucose level after administration was measured by the glucose oxidase method.

serum calcium level [2] = assay: serum calcium after nasal administration of calcitonin nasal drop to rabbits; assay type: in vivo, New Zealand white male rabbit; settings: for Percent decrease of the serum calcium level from before administration: [Asu^1.7]-eel calcitonin nasal drop, 15 units/50 μl, rabbit
Method: This nasal drop contained 15 units/50 μl of calcitonin. Fifty microliters of the nasal drop was administered to the nasal cavity of a New Zealand white male rabbit, and the concentration of calcium in the serum after administration was measured by using a calcium measuring kit (made by Iatron Co.).

[3] = concentration of indomethacin in rat blood after application of ointment to the back; settings: versus the comparative ointments
Method: An ointment was prepared from 1 part by weight of indomethacin, 10 parts by weight of compound (168) and 89 parts by weight of a hydrophilic ointment (composed of 250 parts of white Vaseline, 220 parts by weight of stearyl alcohol, 120 parts by weight of propylene glycol, 15 parts by weight of sodium laurylsulfate, 0.25 part by weight of ethyl p-hydroxybenzoate, 0.15 part by weight of propyl p-hydroxybenzoate and a small amount of purified water). The back of a rat (body weight about 250 g) was cut by an electric hair-clipper, and 100 mg of the resulting ointment was applied by a finger to a circular unhaired portion, 4 cm in diameter. The blood was drawn from the tail of the rat periodically, and the concentration of indomethacin in the blood was determined periodically by high-performance liquid chromatography.
Various ointments were prepared from 1 part by weight of indomethacin, 10 parts of each of various penetration enhancers shown in Table 2 and the hydrophilic ointment, and tested as in Example 1.

[4] = concentration of cephalothin sodium in blood after intrarectal administration of suppository; assay type: in vivo, Beagle dog; settings: versus the comparative suppository
Method: Eighty parts by weight of cacoa butter, 10 parts by weight of compound (168) and 10 parts by weight of cephalothin sodium were uniformly mixed and then slightly warmed. The mixture was filled in a suppository container to form a suppository containing 1 g of the mixture. The suppository was administered intrarectally to a Beagle dog, and the concentration of cephalothin sodium in the blood after administration was measured by the cup method.

serum calcium level [5] = assay: serum calcium after intrarectal administration of calcitonin composition to rats; assay type: in vivo, rat; settings: versus the comparative suppository
Excerpt: Cacao butter (93 parts by weight) and 7 parts by weight of compound (168) or compound (173) were uniformly mixed, and (Asu^1.7)-eel calcitonin was gradually added and mixed to form a uniform composition. The composition was slightly warmed, and placed into a suppository container to form a suppository for rats having a diameter of about 3 mm and a length of about 6 mm. This suppository contained 0.7 MRC unit of calcitonin. The suppository was intrarectally administered to a rat, and the concentration of calcium in the blood serum after administration was measured by using a calcium measuring kit (made by Iatoron Co.).
Various […] were prepared from cacao butter, the various penetration enhancers shown in Table 12 and [Asu^1.7 ]-eel calcitonin, and tested in the same way as in Example 85.

carrageenan edema = carrageenan edema inhibiting effect of betamethasone valerate ointments; assay type: in vivo, rat; settings: 0.15% betamethasone valerate, 9.85% Compound (168) or none
How it was run: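 Rat carrageenan paw edema: 0.1 ml of 1% carrageenan injected into the right hind paw of 150–175 g rats. Ointment containing 0.15 part betamethasone valerate plus penetration enhancer, 100 mg, applied to the inflamed site at 0.5, 1 and 2 h. Paw volume measured by mercury displacement at 0, 3, 5 and 6 h.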

CCCCCCCC/C=C\CCCCCCCC(=O)OCC(O)COC(=O)[C@@H]1CCC(=O)N1 (stereo partly drawn) [Compound (168), 2-hydroxy-3-oleoyloxy-1-pyroglutamyloxypropane]
Primary irritation score, Conjunctiva ([1]; 1 hour): 2.0
Primary irritation score, Cornea ([1]; 1 hour): 0
Primary irritation score, Iris ([1]; 1 hour): 0
Primary irritation score, Total ([1]; 1 hour): 2.0
Primary irritation score, Conjunctiva ([1]; 3 hours): 2.0
Primary irritation score, Cornea ([1]; 3 hours): 0
Primary irritation score, Iris ([1]; 3 hours): 0
Primary irritation score, Total ([1]; 3 hours): 2.0
Primary irritation score, Conjunctiva ([1]; 6 hours): 1.3
Primary irritation score, Cornea ([1]; 6 hours): 0
Primary irritation score, Iris ([1]; 6 hours): 0
Primary irritation score, Total ([1]; 6 hours): 1.3
Primary irritation score, Conjunctiva ([1]; 24 hours): 0
Primary irritation score, Cornea ([1]; 24 hours): 0
Primary irritation score, Iris ([1]; 24 hours): 0
Primary irritation score, Total ([1]; 24 hours): 0
Primary irritation score, Conjunctiva ([1]; 48 hours): 0
Primary irritation score, Cornea ([1]; 48 hours): 0
Primary irritation score, Iris ([1]; 48 hours): 0
Primary irritation score, Total ([1]; 48 hours): 0
Primary irritation score, Conjunctiva ([1]; 72 hours): 0
Primary irritation score, Cornea ([1]; 72 hours): 0
Primary irritation score, Iris ([1]; 72 hours): 0
Primary irritation score, Total ([1]; 72 hours): 0
Primary irritation score, Conjunctiva ([1]; 96 hours): 0
Primary irritation score, Cornea ([1]; 96 hours): 0
Primary irritation score, Iris ([1]; 96 hours): 0
Primary irritation score, Total ([1]; 96 hours): 0
Primary irritation score, Conjunctiva ([1]; 168 hours): 0
Primary irritation score, Cornea ([1]; 168 hours): 0
Primary irritation score, Iris ([1]; 168 hours): 0
Primary irritation score, Total ([1]; 168 hours): 0
Percent decrease of the blood glucose level from that before the administration (blood glucose level; 30 min): 32.8%
Percent decrease of the blood glucose level from that before the administration (blood glucose level; 1 hr): 36.3%
Percent decrease of the blood glucose level from that before the administration (blood glucose level; 2 hrs): 19.1%
Percent decrease of the blood glucose level from that before the administration (blood glucose level; 3 hrs): 5.2%
absorption of insulin from the suppository (blood glucose level; versus the comparative suppository): better
Percent decrease of the serum calcium level from before administration (serum calcium level [2]; 1 hr): 6.1%
Percent decrease of the serum calcium level from before administration (serum calcium level [2]; 2 hrs): 4.0%
Percent decrease of the serum calcium level from before administration (serum calcium level [2]; 3 hrs): 1.8%
Percent decrease of the serum calcium level from before administration (serum calcium level [2]; 5 hrs): 0.9%
absorption of calcitonin from the nasal composition (serum calcium level [2]; versus the comparative composition): better
absorption of indomethacin from the ointment [3]: better
absorption of cephalothin sodium from the suppository [4]: better
absorption of calcitonin from the suppository (serum calcium level [5]): better
Percentage inhibition based on the control (carrageenan edema; 3 hrs): 19.7%
Percentage inhibition based on the control (carrageenan edema; 5 hrs): 36.8%
Percentage inhibition based on the control (carrageenan edema; 6 hrs): 39.2%
